# Experimental data taken from ChEMBL document CHEMBL3507680, “University of Dundee, Gates Library screen for HepG2 cell viability”.
# Assay: Human HepG2 cell viability assay in 384 well format
# Format: toxicity, cell-based
# Parameters: dose 125 nL, time 70.5 hour; concentration not given beside the values
# Details: HepG2 cells, read-out: Inhibition
row,SMILES,cytotoxicity at 70.5 h [%]
1,CC(C)c1nc(N2CCC(N3CCCC(O)C3)CC2)c2cnn(C)c2n1 (stereo unspecified),1.93
2,COC(=O)c1cccc(C(=O)N2CCN(c3cccc(C)c3C)CC2)n1,-14.1
3,Cc1cc(-c2cnc(NCc3ccccn3)nc2C(C)C)on1,-11.7
4,Cc1nc2c(Nc3ccc(C#N)cc3)nc(N)nc2n1C,-1.73
5,CC(=O)Nc1ccc(CNC(C)c2c(C)nn(C)c2C)cc1 (stereo unspecified),13.1
6,Cc1nnsc1C(=O)N1CCC(c2nc3ccccc3[nH]2)CC1,24
7,Cc1cnn(-c2ccc(S(=O)(=O)N(C)CC(F)F)cc2F)c1,-8.45
8,CC1CCN(CCCNC(=O)C2CCCCC2)CC1,-5.79
9,CC(=O)N[C@@H]1C[C@H](Cc2ccccc2)O[C@H](c2ccc(C(=O)O)cc2)C1,-6.19
10,Cn1cc([C@@H]2CN(S(=O)(=O)c3cccnc3)C[C@H]2N)c2ccncc21,24
11,CS(=O)(=O)c1cccc(S(=O)(=O)NC(=O)CC2CCCCC2)c1,-4.36
12,N#CCCN(Cc1cccnc1)C(=O)c1ccc(-n2cnnn2)cc1,-12.1
13,COc1ccc(CC(=O)N2CCC3(CC2)CCN(CC(C)C)C3=O)cc1,-10.5
14,CNC(=O)[C@@]12CCO[C@@H]1CCN(S(=O)(=O)c1ccccc1F)C2,-13.3
15,CC(=O)N1C[C@@H](F)[C@@H](OCc2nc3cc(C)c(C)cc3[nH]2)C1,-0.883
16,Cc1cc(F)cc2c(N3CCS(=O)(=O)CC3)c(C#N)cnc12,0.465
17,COc1ccc(-c2ncc(-c3nccn3CCN(C)C)cn2)cc1,-10.5
18,Cc1cccc(N2CCOCC3(C2)CN(c2cncnc2)C(=O)CO3)n1 (stereo unspecified),-6.08
19,O=C(NCCN1C(=O)c2ccccc2C1=O)c1scnc1Cl,-7.67
20,COC[C@]12COC[C@H]1CN(Cc1cccnc1OC)C2,-19
21,FC1(F)CCN(Cc2ccccn2)CC12CCN(c1ncccn1)C2 (stereo unspecified),-7.15
22,Cc1nc(C(=O)N2CCC(Cc3cnc4[nH]ccc4c3)C2)co1 (stereo unspecified),18.9
23,Cc1ccc(N2CCN(C(=O)CCc3n[nH]c(C)c3C)CC2=O)cc1,-0.118

row,SMILES,cytotoxicity at 70.5 h [%]
1,COc1cccc2c(=O)n(C3CCCNC3)cnc12 (stereo unspecified),-11.4
2,CCc1ccc(O)c(C(=O)NC2CCN(Cc3ccncc3)CC2)c1,17.7
3,Cn1cc(N2CCC(NC(=O)c3ccccc3Cl)C2=O)cn1 (stereo unspecified),1.26
4,Cc1cc(C)nc(C2CCCN2C(=O)c2cnccn2)n1 (stereo unspecified),-2.97
5,CNC(=O)C1(CCCc2ccncc2)CCCN1 (stereo unspecified),-7.77
6,CCOC(C)c1nc(CN2CCNCC2)cs1 (stereo unspecified),10.9
7,COC(=O)C(NC(=O)c1ccc(NC2CC2)nc1)c1ccccc1 (stereo unspecified),-5.38
8,CCc1cc(C(=O)NCC2CCN(Cc3cccc(C#N)c3)C2)on1 (stereo unspecified),-1.72
9,O=C(c1coc(COc2cccc(F)c2)n1)N1CC[C@H](O)[C@@H](O)C1,-9.89
10,Cc1ccc(N2CCC3(CCN(C(=O)C4CCOC4)CC3)CC2)nn1 (stereo unspecified),-3.84
11,Cc1cs/c(=N/C(=O)c2csc(NCC(C)C)n2)[nH]1,-4.1
12,O=C1NCCCCC1NC(=O)N1CCCc2ccccc21 (stereo unspecified),-12.7
13,CCCNC(=O)C(C)NC(=O)Nc1ccccc1SC(F)F (stereo unspecified),-13
14,Cc1cc(CN2CCN(C(C)C(=O)NCc3cccs3)CC2)no1 (stereo unspecified),-2.27
15,N#Cc1cccc(C(=O)Nc2ccc([C@@H](O)[C@H]3COCC(=O)N3)cc2)c1,-9.14
16,c1cnc2[nH]nc(C3CCN(Cc4ccsc4)CC3)c2c1,-4.44
17,CC(=O)NCC(=O)N1Cc2c(-c3cccc(C)c3)nc(N)nc2C1C (stereo unspecified),-13.1
18,COCCN1CCOCC12CCN(C(=O)c1ccncc1)CC2,-9.1
19,CC(=O)NCC(=O)N1CCCC2(CCC(=O)N(CCc3c[nH]cn3)C2)C1 (stereo unspecified),10.1
20,Cc1ncnc(N2CCCN(c3nc4ccccc4s3)CC2)c1C,7.7
21,COCc1csc(NC(=O)NCc2ccc(C)s2)n1,1.09
22,CCc1nn(C)c(CC)c1CNC(=O)Nc1cccc([S+](C)[O-])c1 (stereo unspecified),14.6
23,COc1c(CC2CC(CO)=NO2)c(Br)c2c(c1OC)OCO2 (stereo unspecified),-0.342

row,SMILES,cytotoxicity at 70.5 h [%]
1,CC(=O)N1CCC1c1cc(NC2CCOCC2)nc(C)n1 (stereo unspecified),-0.759
2,CC(=O)N1CCCC(Cc2cnc(C(=O)N3CCC(C)CC3)cn2)C1 (stereo unspecified),-5.67
3,Clc1ccc2oc(C3CCN(Cc4nc(C5CC5)no4)CC3)nc2c1,-16.3
4,CC(C)C(=O)N1CCC(c2nc(O)cc(-c3ccncc3)n2)CC1,-15.8
5,CN(C)Cc1cccc(-c2cccnc2C(=O)NCc2ccco2)c1,-4.14
6,COc1ccc(C(NCc2cccc(C#N)c2)C(C)C)cc1 (stereo unspecified),5.48
7,Cc1cc2nc(C(C)C)cc(NC(C)c3nncn3C3CCCC3)n2n1 (stereo unspecified),-11.7
8,O=C(c1ccc(Cn2ccccc2=O)o1)N1CCSCC1,-8.03
9,COCCn1c(=O)n(Cc2cccc(F)c2F)c2cc(C(=O)O)ccc21,18.8
10,FC(F)(F)c1cccc(OC2CCN(Cc3ccccn3)CC2)c1,-0.484
11,CCC(CO)N(Cc1ccccn1)Cc1c[nH]nc1-c1ccc(F)cc1 (stereo unspecified),-6.02
12,CO[C@@H]1CN(c2ccccc2)S(=O)(=O)[C@@]12CCNC2,11.6
13,Cc1cncc(C(=O)N2C[C@H]3CCC[C@@]3(COc3ccccn3)C2)c1,7.93
14,Cc1c[nH]c(CN(C)C(=O)c2cccc(CCC(C)(C)O)c2)n1,-5.47
15,O=C(c1ccno1)N1CCN2C(=O)N(Cc3ccc(F)cc3)C[C@H]2C1,-8.27
16,O=C(c1csc(-c2cccs2)n1)N1CCCC1Cn1cccn1 (stereo unspecified),-18.2
17,Cc1ccc(CN2CCN(Cc3ccc(N(C)C)nc3)CC2=O)cc1C,-1.36
18,COc1ccc(C)cc1CC(=O)NC1(C#N)CCOCC1,29.1
19,O=C([C@H]1CC[C@@H]2[C@@H](CCN2C2CCOCC2)O1)N1CCOCC1,-6.52
20,CCCc1nccn1-c1ccc(C(O)CN2CCOCC2)cc1 (stereo unspecified),27.6
21,COc1ccc(CN(C)CC(O)COCc2ccccc2Cl)c(OC)c1 (stereo unspecified),16.2
22,Cc1nc(N2CCN(C(=O)c3ccccc3)CC2)c2c(n1)c(C)nn2C,-2.09
23,COc1cc(CCO)c(OC)c2c1OCO2,-7.84

row,SMILES,cytotoxicity at 70.5 h [%]
1,COCC(C)N(C)C(=O)c1nc(S(C)(=O)=O)n2ccccc12 (stereo unspecified),-0.102
2,O=C(NCCc1nncn1C1CC1)C1(c2ccccc2)CCC1,-5.9
3,COc1cccc(NC(=O)Cn2c(=O)nc(N)c3cc(C)sc32)c1,-17.3
4,CN1C(=O)CC(C(=O)O)C12CCN(Cc1ccc(Cl)cc1F)CC2 (stereo unspecified),2.06
5,CCN1CCN(c2ncc(-c3cc(C)no3)c(-c3ccc(C)s3)n2)CC1,-27.4
6,COCCN(CCC#N)S(=O)(=O)c1ccc(F)cc1F,0.44
7,CCCS(=O)(=O)N1CC[C@H]2O[C@H](c3nnc(C)o3)CC[C@H]21,11.3
8,CC(O)CN1CCC(CN(C)CCC(=O)NC2CCCC2)CC1 (stereo unspecified),-1.49
9,CCn1nc(C)c(S(=O)(=O)Nc2cccc(C(=O)O)c2C)c1C,-2.69
10,CCn1c(CN(C)C)nnc1C1CCN(Cc2ccncc2)CC1,-6.3
11,O=C(Cn1cc(I)cn1)N1CCNC1=O,-8.59
12,Cc1nc(NC2CCCCC2)cc(C2CCCNC2)n1 (stereo unspecified),26.4
13,COCC(=O)NCc1cc(=O)n2c(n1)CN(Cc1ccncc1)CCC2,-0.67
14,CNC(=O)c1ccc(C(=O)N2CCCCC2Cn2cc(C)cn2)cn1 (stereo unspecified),-5.34
15,C=Cc1ccc(C(=O)N2CCCC(Nc3ccc(OC)cc3)C2)cc1 (stereo unspecified),-7.62
16,CCc1cc(=O)n(CC(=O)N2CCCC2)c(-c2ccc(F)cc2)n1,-5.4
17,O=C(NCC1CCOCC1)[C@@H]1C[C@@H]2[C@@H](CCN2Cc2ccoc2)O1,0.123
18,CN(Cc1ccccc1C#N)C1CCN(CCc2ccccn2)CC1,-3.57
19,O=C(CC1CC1)NC1CCc2c(ccc(=O)n2CC2CC2)C1 (stereo unspecified),0.842
20,Cc1nc(C)n(CC2CCCN(Cc3nc(-c4ccco4)no3)C2)n1 (stereo unspecified),-3.87
21,COc1ccccc1C(=O)N1CC(=O)N(C2CCCCC2)CC(O)C1 (stereo unspecified),15.8
22,CC(C)(C)c1ncc(S(C)(=O)=O)c(C2CCCNC2)n1 (stereo unspecified),-6.75
23,CC1CCN(C(=O)c2cccc(CN3CCOCC3)c2)CC1,-5.87

row,SMILES,cytotoxicity at 70.5 h [%]
1,Cc1ccc(CN2CCC3(CC2)C(=O)Nc2ccccc23)s1,-7.74
2,O=C(CCc1ccccc1)NCC1CCN(Cc2ccccc2)CC1,0.0668
3,CSc1nc(O)c(Cc2ccccc2)c(=O)n1-c1ccccc1,-6.85
4,O=S(=O)(Nc1cnc(N2CCOCC2)nc1)c1ccc(Cl)cc1,3.18
5,CCN1CCC2(CC1)CC(NC(=O)c1ccnnc1)c1ccccc12 (stereo unspecified),7.06
6,COCC(=O)N(C)Cc1ccc(Cl)c(Cl)c1,-12.6
7,CCOC(=O)C1CCN(C(=O)CN2CCCC2c2ccccc2C)CC1 (stereo unspecified),-10.7
8,CCCc1nc(CN(CCO)Cc2cc(Br)ccc2F)no1,-13.1
9,CN(C)S(=O)(=O)c1ccc(CN2CCCC2c2ccccc2)o1 (stereo unspecified),32.6
10,CC(=O)N(C)[C@H]1CC[C@]2(CC1)CNC(=O)c1cc(C)ccc1O2,-11.3
11,COC(=O)c1ccc(CNC(=O)Nc2ccc(=O)n(C)c2)cc1,-2.19
12,O=C(c1ccc(F)cc1)N1C[C@@H]2CN(c3ncccn3)C[C@@H]2C1,-6.82
13,CN1CCC(N[C@@H]2CO[C@H](CNC(=O)c3cccs3)[C@H]2O)CC1,-6.9
14,COc1ccc2c(c1)CCN(Cc1cscn1)CC2,-0.57
15,CS(=O)(=O)CCC(=O)N(Cc1c(F)cccc1F)C1CCCC1,21
16,CC(C)n1cnc2c(-c3cccnc3)nc(C3CCNCC3)cc21,12
17,Cc1ccc(CN2CCc3ncc(CNC(=O)C4CCC4)n3CC2)o1,-2.7
18,CCc1cnc(N2CC[C@H]3[C@@H]2CCC(=O)N3CC2CCOCC2)nc1,20.9
19,Cc1nc(C2CCN(C(=O)c3ccc(Cl)s3)CC2)cc(=O)[nH]1,-6.29
